Reference: US6818656B2, “Method and composition for treatment of irritable bowel disease” (University of Florida, priority 2001, dated 2004)
Where two headings read alike, the source gives them in different places.

How the values were obtained:
[1] = test system: castor oil-induced diarrhea; conditions: cited from earlier work; for activity in castor oil-induced diarrhea model (in words): rodent
[2] = cited from earlier work
[3] = compared with DEHSPM; cited from earlier work
diarrhea = conditions: animal models and clinic; cited from earlier work
[4] = test system: stress-induced fecal output; assay: Psychological stress-induced (water avoidance) IBS model, SC administration; format: in vivo; conditions: for Stool Output: 6-h collection
From the text: (§1) For drug preparation and administration, the compounds were put into solution with sterile normal saline and sonicated briefly, if necessary. The drugs were made up at concentrations such that the rats received the drugs PO or SC at the rate of 1 cc per kilogram. Mice received the CHX(3,4,3)-trans IP at 1 cc per 100 grams. The solutions were made fresh the day of the study. Control animals received an equivalent amount of saline PO or SC.
Animal care and experimental procedures were approved by the Institutional Animal Care and Use Committee. Male Sprague-Dawley rats (250-350 g, Harlan Sprague-Dawley, Indianapolis, Ind.) were housed in polycarbonate cages in a temperature- and humidity-controlled room with a 12-hour light/dark cycle. The experiments were performed at the same time of the day to decrease diurnal variability. A typical experiment involved 20 rats: 5 saline-treated controls and 5 pretreated with polyamine analogues at each of three doses as either a SC injection or a PO gavage. The rats in the SC studies and in one set of experiments involving PO administration were allowed ad libitum access to a standard rodent diet and tap water until the morning of the experiment. Stress was initiated 30 minutes post drug as described below. In another set of experiments involving PO administration, the animals were fasted overnight but were allowed free access to water. […] In a final experiment, non-stressed control rats were injected with saline SC and housed in individual polycarbonate cages. The fecal output (number of pellets) of the stressed and unstressed animals was recorded at 30-min intervals for a 6-h period, during which they received no food or water.
(§2) To initiate the stress, water was added to each cage to a depth of at least 4.5 cm, i.e., within 0.5 cm of the top of the Pyrex dish. To avoid contact with water, the rats stand on the glass dish for the 6 h of the study. Stool output was expressed as the total number of fecal pellets excreted over the 6-h collection period. Percent reduction was calculated by dividing the mean value from the treated animals (T) by the mean value from the control animals (C), subtracting the resulting quotient from 1.0, and multiplying by 100 [i.e., (1.0−T/C)×100].
(§3) A one-tailed t-test assuming unequal variance was performed on the stool output data of the treated vs control (0 mg/kg) animals for each compound. A value of P<0.05 was considered significant.
The psychological stress-induced IBS model involves subjecting the rats to an aversive stimulus (water) and observing the increase in fecal output over a period of time. […] Control rats received an equivalent amount of saline SC.

[5] = test system: stress-induced fecal output; assay: Psychological stress-induced (water avoidance) IBS model, PO administration by gavage; format: in vivo, rat; conditions: for oral activity against stress-induced fecal output (in words): PO gavage, non-fasted rats, 11.6-115.6 μmol/kg
From the text: as §1
Animal care and experimental procedures were approved by the Institutional Animal Care and Use Committee. Male Sprague-Dawley rats (250-350 g, Harlan Sprague-Dawley, Indianapolis, Ind.) were housed in polycarbonate cages in a temperature- and humidity-controlled room with a 12-hour light/dark cycle. The experiments were performed at the same time of the day to decrease diurnal variability. A typical experiment involved 20 rats: 5 saline-treated controls and 5 pretreated with polyamine analogues at each of three doses as either a SC injection or a PO gavage. The rats in the SC studies and in one set of experiments involving PO administration were allowed ad libitum access to a standard rodent diet and tap water until the morning of the experiment. Stress was initiated 30 minutes post drug as described below. In another set of experiments involving PO administration, the animals were fasted overnight but were allowed free access to water. The animals were then stressed from ½ h to 2 h post-drug (data not shown). In a final experiment, non-stressed control rats were injected with saline SC and housed in individual polycarbonate cages. The fecal output (number of pellets) of the stressed and unstressed animals was recorded at 30-min intervals for a 6-h period, during which they received no food or water.
as §2, with “Once the drug had been administered, the animals were housed individually in polycarbonate cages containing a clear 70×50 mm Pyrex crystallization dish (Fisher, Pittsburgh, Pa.) inverted in the center and held in place with vacuum grease. To initiate” for “To initiate”
as §3
Because an orally active compound would be desirable for the treatment of IBS, selected analogues utilizing oral administration in the same model were assessed. In the initial studies animals were utilized that had been fasted overnight. Rodents were then given the drug of interest PO by gavage and stressed ½ h, 1 h, or 2 h post-drug. Unfortunately, because of the low baseline stool output in fasted control rats, the reductions in fecal output observed upon drug administration cannot be reported with any confidence (data not shown). Thereafter, only non-fasted animals were employed and were given the agents by gavage at doses of 11.6, 23.2, 57.8, or 115.6:mol/kg 30 minutes before initiating the stress. […] At doses of 11.6 and 23.2:mol/kg, CHX(3,4,3)-trans reduced stooling by about 80% (P=0.001 and <0.001, respectively). DEHSPM was effective at a dose of […]:mol/kg (40% diminution of fecal output; P<0.01), and DE(5,4,5) was active at doses of 23.2 and 57.8:mol/kg (55 and 73% reductions in fecal output, respectively; P<0.001 for both doses).

[6] = Acute toxicity assessment, single intraperitoneal injection; format: in vivo; conditions: toxic doses, mice
Method: For the acute toxicity assessment the CHX(3,4,3)-trans was administered to female CD-1 mice (Charles River, Wilmington, Mass.) as a single intraperitoneal (IP) injection. The animals were carefully observed post-dosing and were scored 2 h after administration of the drug.
as §1

[7] = mice; N-de-ethylated metabolite of DEHSPM; cited from earlier work
[8] = dog; relative to 2-3 weeks in mice; cited from earlier work
[9] = test system: constipation-predominant IBS; conditions: eight patients, 16 mg three times a week, eight weeks; cited from earlier work
[10] = dogs, 4.3 mg/kg/day for 14 days or 2.15 mg/kg/d for 28 days
[11] = 2.3 μmol/kg SC, stress 30 min post drug
[12] = Rattus norvegicus, 57.8 μmol/kg SC, vs stressed controls, 6 h, read-out: % Reduction

CCNCC[C@@H](O)CNCCCCNC[C@H](O)CCNCC [(HO)2DEHSPM, (3R, 12R)-N^1,N^14-diethyl-3,12-dihydroxyhomospermine]
activity in castor oil-induced diarrhea model (in words) [1]: considerably decreased stool output
onset of exocrine pancreatic insufficiency post-final dose [2, 10]: approximately 40 days
pancreatic toxicity [2, 10]: exocrine pancreatic insufficiency developed
induction of cardiac bigeminies ([2]; treated dogs): minimal
residence time in most mouse tissues [3]: shorter than that of DEHSPM
antidiarrheal activity (in words) (diarrhea): as effective an antidiarrheal as DEHSPM

CCNCCCNCCCNCCCNCC [Compound 1, N^1,N^11-diethylnorspermine]
Stool Output [4, 11]: 17.4 ± 5.1 number of fecal pellets
Stool Output ([4]; 11.6 μmol/kg SC): 15.2 ± 4.5 number of fecal pellets
Stool Output ([4]; 57.8 μmol/kg SC): 13.4 ± 5.9 number of fecal pellets
activity at diminishing stress-induced fecal output (in words) ([4]; SC administration to stressed rats, listed as DENSPM): completely ineffective
oral activity against stress-induced fecal output (in words) [5]: only CHX(3,4,3)-trans, DEHSPM, and DE(5,4,5) showed any activity at all
activity in castor oil-induced diarrhea model (in words) ([1]; listed as DENSPM): ineffective in reducing stooling

CCNCCCNCCCCNCCCNCC [Compound 3, N^1,N^12 diethylspermine]
Stool Output ([4]; 23.2 μmol/kg SC): 12.5 ± 2.9 number of fecal pellets
Stool Output ([4]; 35.4 μmol/kg SC): 9.0 ± 6.3 number of fecal pellets
Stool Output ([4]; 61 μmol/kg SC): 2.8 ± 2.7 number of fecal pellets
inhibition in vivo at 23.2 µmol/kg ([4]; Rattus norvegicus, 23.2 μmol/kg SC, vs stressed controls, 6 h, read-out: % Reduction): 35%
inhibition in vivo at 35.4 µmol/kg ([4]; Rattus norvegicus, 35.4 μmol/kg SC, vs stressed controls, 6 h, read-out: % Reduction): 53%
inhibition in vivo at 61 µmol/kg ([4]; Rattus norvegicus, 61 μmol/kg SC, vs stressed controls, 6 h, read-out: % Reduction): 90%
oral activity against stress-induced fecal output (in words) [5]: only CHX(3,4,3)-trans, DEHSPM, and DE(5,4,5) showed any activity at all
signs of acute toxicity in mice [6]: generalized depression with respiratory failure

CC(C)CCNCCCNCCCCNCCCNCCC(C)C [Compound 9]
Stool Output [4, 11]: 18.2 ± 2.8 number of fecal pellets
Stool Output ([4]; 11.6 μmol/kg SC): 14.6 ± 4.5 number of fecal pellets
toxic effects observed in stressed rats ([4]; 57.8 μmol/kg SC): ^hDue to severe CNS toxicity, 3 of the 5 rats were removed after 4-4.5 h; neither of the remaining 2 rats had any stool output for the remainder of the study.
Stool Output ([4]; 57.8 μmol/kg SC): 0 ± 0 number of fecal pellets
toxic effects observed in stressed rats ([4]; 57.8 μmol/kg SC, listed as DIPESPM): severe neurotoxicity
inhibition in vivo at 57.8 µmol/kg [4, 12]: 100%
neurotoxicity in rats at subtherapeutic doses ([1]; doses equivalent to a 5 mg/kg dose of DEHSPM): Signs of neurotoxicity

CCNCCCCNCCCCNCCCCNCC [Compound 13, N^1,N^14-diethylhomospermine]
Stool Output ([4]; 11.6 μmol/kg SC): 2.1 ± 2.1 number of fecal pellets
Stool Output ([4]; 57.8 μmol/kg SC): 0 ± 0 number of fecal pellets
inhibition in vivo at 11.6 µmol/kg ([4]; Rattus norvegicus, 11.6 μmol/kg SC, vs stressed controls, 6 h, read-out: % Reduction): 89%
inhibition in vivo at 57.8 µmol/kg [4, 12]: 100%
Stool Output ([5]; 115.6 μmol/kg PO, 6-hr collection): 10.6 ± 1.8 number of fecal pellets
% Reduction ([5]; 115.6 μmol/kg PO, vs stressed controls, 6 hr): 40%
diminution of fecal output ([5]; 15.6 :mol/kg PO): 40%
signs of acute toxicity in mice [6]: generalized depression with respiratory failure
time at which arrhythmia was apparent in 6-lead EKG ([2]; SC, dogs, 2 mg/kg daily): as early as three days
cardiac effect ([2]; SC, three dogs, 2 mg/kg daily for 11-17 days): ventricular bigeminies
antidiarrheal activity (in words) (diarrhea): very potent antidiarrheal

NCCCCNCCCCNCCCCN [HSPM, homospermine]
half-life [7]: 2-3 weeks
half-life [8]: even longer

C=C1CCC2(O)C3Cc4ccc(OC5OC(C(=O)O)C(O)C(O)C5O)c5c4C2(CCN3CC2CC2)C1O5 (stereo not drawn) [Nalmefene glucuronide]
abdominal pain or bloating [9]: did not reduce abdominal pain or bloating
transit time and stool frequency [9]: decreased transit time and increased stool frequency
